Data as given in patent US20220048915A1 (SHANGHAI PHARMACEUTICALS HOLDING CO., LTD., priority 2018, published 2022).

How the values were obtained:
p38γ = biological target: T1, p38γ (Homo sapiens, UniProt P53778); test: In vitro inhibition of p38 kinase (LANCE Ultra TR-FRET); format: biochemical; conditions: read-out: Kinase in vitro IC50(nM) p38γ
T1 sequence (P53778 1-367): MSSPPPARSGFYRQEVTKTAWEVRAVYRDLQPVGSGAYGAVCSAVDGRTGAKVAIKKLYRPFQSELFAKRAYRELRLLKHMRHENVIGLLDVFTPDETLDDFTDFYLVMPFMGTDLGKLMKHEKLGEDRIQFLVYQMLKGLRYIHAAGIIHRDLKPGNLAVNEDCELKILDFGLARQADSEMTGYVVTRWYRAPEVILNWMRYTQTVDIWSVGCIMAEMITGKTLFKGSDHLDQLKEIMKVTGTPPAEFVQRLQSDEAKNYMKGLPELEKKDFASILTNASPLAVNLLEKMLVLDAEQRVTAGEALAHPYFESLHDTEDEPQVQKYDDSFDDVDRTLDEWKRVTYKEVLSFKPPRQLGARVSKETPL
Experimental: 10 mM of the storage solution of the test compound was taken and placed in a 96-well compound plate, and using DMSO for the compound at an initial concentration of 100×, which was then used as the first concentration and then carried out a 3-fold gradient dilution with DMSO for a total of 10 concentrations. After that, 1 μL of gradient dilutions were added to 19 μL of 1× reaction buffer to prepare 5× compound for later use. […] To the compound-free control well was added 2 μL of the following liquid: 19 μL of 1× reaction buffer with addition of 1 μL of DMSO. To the Min control well was added 2 μL of 250 mM EDTA.
1× of LANCE® Detection value Buffer was used to prepare a 2×Antibody for use, and the amount was 5 μL per well, at the same time 10 mM EDTA was prepared for later use. After the enzyme reaction was carried out for 30 minutes, 5 μL 10 mM EDTA was added to the 384-well plate and the reaction was carried out at room temperature for 5 minutes. Afterwards, 5 μL LANCE® Ultra Europium-anti-phospho-eIF4E-binding protein 1 (Thr37/46) was added to the 384-well plate and the reaction was carried out at room temperature for one hour.

p38β = p38β (Homo sapiens, UniProt Q15759); test: as above; format: biochemical; conditions: read-out: Kinase in vitro IC50(nM) p38β
BV-2 cells = test: Inhibition of inflammation in LPS-stimulated BV-2 cells (ELISA of inflammatory factors); format: cell-based; conditions: Mus musculus, 100 ng/mL LPS 4 hours; for Emax: read-out: BV-2 Max Inh. (%); for IC50: read-out: BV-2 Rf IC50
Experimental: Normal cultured 8th passage BV-2 cells were taken, and inoculated separately in 96-well plates at a certain cell density. The cell culture plates were cultured at 37° C. and 5% CO2 for 24 hours.
After inoculating the plate for 24 hours, the cell culture medium was removed, and then 100 μL of a 4-fold gradient dilution compound starting from 10,000 nM prepared in DMEM+10% FBS, where High control and Low control contained 0.1% DMSO without compound. With 100 μL per well, the cell culture plate was cultured at 37° C. with 5% CO2 for one hour.
The compound-containing cultures were removed. 100 ng/mL of LPS was prepared with DMEM+10% FBS culture medium, and then the compound was diluted in a 4-fold gradient from 10,000 nM with LPS-containing culture medium. In low control, the compound was replaced with 0.1% DMSO. In High control, 0.1% DMSO was prepared with culture medium without LPS. 100 μL per well, and the cell culture plates were cultured at 37° C. with 5% CO2 for 4 hours.
After 4 hours of LPS stimulation, 110 μL of the culture solution was aspirated, and centrifuged at 2000 rpm for 2 minutes. A further 90 μl of supernatant was aspirated and immediately put into −20° C. for freezing.
ELISA kits were used to detect the expression of inflammatory factors such as IL-10, TNFα, etc. The OD450 signal values were measured by microplate reader. The in vitro inhibitory activity of the compounds was calculated according to the following formula: Inhibition rate: Inhibition rate (%)=(signal value of control−signal value of administration)/(high signal value of control−low signal value of control)×100%. And according to the inhibition rate of each concentration, Graphpad Prism 5.0 was used to curve fit the […] signal values at each concentration and calculate the corresponding IC50, which is shown in Table 1.

p38α = p38α (Homo sapiens, UniProt Q16539); test: In vitro inhibition of p38 kinase (LANCE Ultra TR-FRET); format: biochemical; conditions: read-out: Kinase in vitro IC50(nM) p38α
[1] = Pharmacokinetic properties in mice; format: in vivo, ICR mice; conditions: for absorption compared with the positive compound VX-745 at the same dose: 10 mg/kg; for Thalf (iv): iv 3 mg/kg; for Cmax / MRT / Tmax: male, ICR, mouse, plasma; for Cmax / MRT / Tmax / AUClast (po): po 10 mg/kg; for BA: po 10 mg/kg vs iv 3 mg/kg; for AUClast (po): 5-1440 minutes
Experimental: Forty-eight male ICR mice, weighing 18-22 g (provided by Shanghai Xipuerbikai Laboratory Animal Co., Ltd, Certificate No.: 20130016008116). The mice were […] for 12-16 hours before the experiment but water was allowed.
Blood samples were collected from the fundus vein of mice before and at 2, 5, 15, 30, 60, 90, 120, 240, 480, 600, and 1440 minutes of the administration, respectively.
Blood samples were collected from the fundus vein of mice before and at 5, 15, 30, 60, 90, 120, 240, 480 and 1440 minutes of administration, respectively.
2-3 time points were taken for each mouse. The mice were sacrificed at 5, 15, 30, 60 and 1440 minutes after the administration (3 mice per time point), and the brains were taken, rinsed with saline, dried on filter paper and weighed.
Blood samples were centrifuged at 8000 rpm for 5 minutes, and supernatant plasma was taken. To 50 μL of plasma samples was added 300 μL of acetonitrile containing internal standard (propranolol, 25 ng/mL) to precipitate the protein. After vortexing for 10 minutes and centrifuging at 6000 g and 4° C. for 10 minutes, the supernatant was taken and placed in a 96-well plate for determination of drug concentration in plasma by UPLC/MS-MS.

Sequence of p38α (Q16539 whole entry): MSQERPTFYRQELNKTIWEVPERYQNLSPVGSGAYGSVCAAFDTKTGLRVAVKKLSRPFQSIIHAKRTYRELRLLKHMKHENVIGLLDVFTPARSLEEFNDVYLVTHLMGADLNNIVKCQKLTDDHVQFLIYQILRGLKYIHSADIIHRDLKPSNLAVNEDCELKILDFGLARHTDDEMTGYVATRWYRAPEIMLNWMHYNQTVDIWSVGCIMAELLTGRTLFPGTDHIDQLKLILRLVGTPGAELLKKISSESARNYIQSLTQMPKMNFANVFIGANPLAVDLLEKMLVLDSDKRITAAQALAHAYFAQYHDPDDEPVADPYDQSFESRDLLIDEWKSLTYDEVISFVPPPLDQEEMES
Sequence of p38β (Q15759 whole entry): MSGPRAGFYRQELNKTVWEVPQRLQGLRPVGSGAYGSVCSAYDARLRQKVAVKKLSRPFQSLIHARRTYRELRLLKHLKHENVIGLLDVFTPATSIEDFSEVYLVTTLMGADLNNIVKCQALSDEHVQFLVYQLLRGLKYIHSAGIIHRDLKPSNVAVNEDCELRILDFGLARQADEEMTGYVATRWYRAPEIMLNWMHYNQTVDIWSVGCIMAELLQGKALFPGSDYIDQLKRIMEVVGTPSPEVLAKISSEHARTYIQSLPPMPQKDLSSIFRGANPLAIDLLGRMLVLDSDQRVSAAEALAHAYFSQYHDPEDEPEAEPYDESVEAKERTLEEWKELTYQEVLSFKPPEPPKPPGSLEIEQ

Structure (SMILES): O=c1ncn2nc(Oc3ccc(F)c(F)c3F)ccc2c1-c1c(Cl)cccc1Cl [Compound I-40]
- IC50 (p38γ): > 3330 nM
- IC50 (p38β): 111 nM
- Emax (BV-2 cells): 47.7%
- IC50 (BV-2 cells): 0.0415 µM
- IC50 (p38α): 23 nM

Structure (SMILES): O=c1ncn2nc(Oc3ccc(Cl)cc3Br)ccc2c1-c1c(Cl)cccc1Cl [Compound I-15, 2-(2-bromo-4-chlorophenoxy)-5-(2,6-dichlorophenyl)-6H-pyrimido[1,6-b]pyridazin-6-one]
- IC50 (p38γ): > 3330 nM
- IC50 (p38β): 263 nM
- Emax (BV-2 cells): 46%
- IC50 (BV-2 cells): 0.132 µM
- IC50 (p38α): 41.3 nM

Structure (SMILES): O=c1ncn2nc(Oc3ccc(F)cc3Cl)ccc2c1-c1c(Cl)cccc1Cl [Compound I-18, 2-(2-chloro-4-fluorophenoxy)-5-(2,6-dichlorophenyl)-6H-pyrimido[1,6-b]pyridazin-6-one]
- IC50 (p38γ): > 3330 nM
- IC50 (p38β): 97.1 nM
- Emax (BV-2 cells): 50.6%
- IC50 (BV-2 cells): 0.00858 µM
- IC50 (p38α): 14.8 nM

Structure (SMILES): O=c1ncn2nc(Oc3c(F)ccc(F)c3Cl)ccc2c1-c1c(Cl)cccc1Cl [Compound I-29, 2-(2-chloro-3,6-difluorophenoxy)-5-(2,6-dichlorophenyl)-6H-pyrimido[1,6-b]pyridazin-6-one]
- IC50 (p38γ): > 3330 nM
- IC50 (p38β): 406 nM
- Emax (BV-2 cells): -50%
- IC50 (BV-2 cells): 0.678 µM
- IC50 (p38α): 34.1 nM

Structure (SMILES): O=c1ncn2nc(Oc3ccc(Cl)cc3F)ccc2c1-c1c(Cl)cccc1Cl [Compound I-6, 2-(4-chloro-2-fluorophenoxy)-5-(2,6-dichlorophenyl)-6H-pyrimido[1,6-b]pyridazin-6-one]
- IC50 (p38γ): > 3330 nM
- IC50 (p38β): 109 nM
- Emax (BV-2 cells): 44.7%
- IC50 (BV-2 cells): 0.0161 µM
- IC50 (p38α): 13.6 nM

Structure (SMILES): O=c1ncn2nc(Oc3ccccc3F)ccc2c1-c1c(Cl)cccc1Cl [Compound I-27, 5-(2,6-dichlorophenyl)-2-(2-fluorophenoxy)-6H-pyrimido[1,6-b]pyridazin-6-one]
- IC50 (p38γ): > 3330 nM
- IC50 (p38β): 109 nM
- Emax (BV-2 cells): 41.9%
- IC50 (BV-2 cells): 0.0188 µM
- IC50 (p38α): 11.7 nM

Structure (SMILES): O=c1ncn2nc(Oc3ccccc3Br)ccc2c1-c1c(Cl)cccc1Cl [Compound I-17, 2-(2-bromophenoxy)-5-(2,6-dichlorophenyl)-6H-pyrimido[1,6-b]pyridazin-6-one]
- IC50 (p38γ): > 3330 nM
- IC50 (p38β): 316 nM
- Emax (BV-2 cells): -60%
- IC50 (BV-2 cells): 0.0958 µM
- IC50 (p38α): 34.8 nM

Structure (SMILES): O=c1ncn2nc(Oc3cc(Br)ccc3Cl)ccc2c1-c1c(Cl)cccc1Cl [Compound I-16, 2-(5-bromo-2-chlorophenoxy)-5-(2,6-dichlorophenyl)-6H-pyrimido[1,6-b]pyridazin-6-one]
- IC50 (p38γ): > 3330 nM
- IC50 (p38β): 109 nM
- Emax (BV-2 cells): 44.2%
- IC50 (BV-2 cells): 0.00619 µM
- IC50 (p38α): 25.9 nM

Structure (SMILES): O=c1ncn2nc(Oc3cccc(F)c3F)ccc2c1-c1c(Cl)cccc1Cl [Compound I-23, 5-(2,6-dichlorophenyl)-2-(2,3-difluorophenoxy)-6H-pyrimido[1,6-b]pyridazin-6-one]
- IC50 (p38γ): > 3330 nM
- IC50 (p38β): 243 nM
- Emax (BV-2 cells): -50%
- IC50 (BV-2 cells): 0.0172 µM
- IC50 (p38α): 46.9 nM

Structure (SMILES): O=c1ncn2nc(Oc3ccc(F)cc3F)ccc2c1-c1cc(Cl)ccc1Cl [Compound I-46, 5-(2,5-dichlorophenyl)-2-(2,4-difluorophenoxy)-6H-pyrimido[1,6-b]pyridazin-6-one]
- IC50 (p38γ): > 3330 nM
- IC50 (p38β): 403 nM
- absorption compared with the positive compound VX-745 at the same dose [1]: better
- Thalf (iv) [1]: 3.96 h
- Cmax [1]: 891 ng/mL
- MRT [1]: 4.86 h
- Tmax [1]: 2 h
- BA [1]: 119.3%
- AUClast (po) [1]: 4016 (h)*(ng/mL)
- IC50 (p38α): 19.7 nM

Structure (SMILES): O=c1ncn2nc(Oc3ccc(F)c(Br)c3)ccc2c1-c1c(Cl)cccc1Cl [Compound I-5, 2-(3-bromo-4-fluorophenoxy)-5-(2,6-dichlorophenyl)-6H-pyrimido[1,6-b]pyridazin-6-one]
- IC50 (p38γ): > 3330 nM
- IC50 (p38β): 389 nM
- Emax (BV-2 cells): 44%
- IC50 (BV-2 cells): 0.0943 µM
- IC50 (p38α): 49.3 nM

Structure (SMILES): O=c1ncn2nc(Oc3cc(Cl)ccc3Cl)ccc2c1-c1c(Cl)cccc1Cl [Compound I-22, 2-(2,5-dichlorophenoxy)-5-(2,6-dichlorophenyl)-6H-pyrimido[1,6-b]pyridazin-6-one]
- IC50 (p38γ): > 3330 nM
- IC50 (p38β): 150 nM
- Emax (BV-2 cells): 53.6%
- IC50 (BV-2 cells): 0.0183 µM
- IC50 (p38α): 31.3 nM

Structure (SMILES): CC(C)N1CCN(c2cc3c(-c4c(Cl)cccc4Cl)c(=O)ncn3nc2Oc2ccc(F)cc2F)CC1 [Compound I-60, 5-(2,6-dichlorophenyl)-2-(2,4-difluorophenoxy)-3-(4-isopropylpiperazin-1-yl)-6H-pyrimido[1,6-b]pyridazin-6-one]
- IC50 (p38γ): > 3330 nM
- IC50 (p38β): 111 nM
- Emax (BV-2 cells): 34.5%
- IC50 (BV-2 cells): 0.0124 µM
- IC50 (p38α): 14.8 nM

Structure (SMILES): O=c1ncn2nc(Oc3cc(F)ccc3F)ccc2c1-c1c(Cl)cccc1Cl [Compound I-21, 5-(2,6-dichlorophenyl)-2-(2,5-difluorophenoxy)-6H-pyrimido[1,6-b]pyridazin-6-one]
- IC50 (p38γ): > 3330 nM
- IC50 (p38β): 226 nM
- Emax (BV-2 cells): 51.3%
- IC50 (BV-2 cells): 0.0192 µM
- IC50 (p38α): 27.7 nM

Structure (SMILES): Cc1ccccc1-c1c(=O)ncn2nc(Oc3ccc(F)cc3F)ccc12 [Compound I-50, 2-(2,4-difluorophenoxy)-5-(o-methylphenyl)-6H-pyrimido[1,6-b]pyridazin-6-one]
- IC50 (p38γ): > 3330 nM
- IC50 (p38β): 1090 nM
- absorption compared with the positive compound VX-745 at the same dose [1]: better
- Thalf (iv) [1]: 1.93 h
- Cmax [1]: 928 ng/mL
- MRT [1]: 3.05 h
- Tmax [1]: 0.83 h
- BA [1]: 84.9%
- AUClast (po) [1]: 3107 (h)*(ng/mL)
- IC50 (p38α): 34.2 nM

Structure (SMILES): O=c1ncn2nc(Oc3cccc(Cl)c3Cl)ccc2c1-c1c(Cl)cccc1Cl [Compound I-12, 2-(2,3-dichlorophenoxy)-5-(2,6-dichlorophenyl)-6H-pyrimido[1,6-b]pyridazin-6-one]
- IC50 (p38γ): > 3330 nM
- IC50 (p38β): 302 nM
- Emax (BV-2 cells): 49.5%
- IC50 (BV-2 cells): 0.176 µM
- IC50 (p38α): 32.8 nM

Structure (SMILES): O=c1ncn2nc(Oc3ccc(F)cc3F)ccc2c1-c1ccc(Cl)cc1Cl [Compound I-56, 5-(2,4-dichlorophenyl)-2-(2,4-difluorophenoxy)-6H-pyrimido[1,6-b]pyridazin-6-one]
- IC50 (p38γ): > 3330 nM
- IC50 (p38β): 479 nM
- IC50 (p38α): 19.6 nM
